“And” between values parts separate entries of the source, which are not always exact repeats. Identical values can stand only once.
Experiments:
NOD/SCID mice [1] = experiment: Serial (secondary) transplantation of expanded CB cells; type: in vivo, mouse
LINE-1 = experiment: Global DNA methylation (LINE-1) by pyrosequencing; type: cell-based, human; settings: CD34+ cells at day 3 of culture; FIG. 6A
Experimental: DNA methylation analysis was performed by EpigenDx (Worcester, Mass.) using quantitative pyrosequencing and the PSQ-HS96 system according to standard procedures (Warren et al., 2010, Cell Stem Cell. 7: 618-630). Primers were developed for the CpG sites near the promoter area as detailed in Table 3. Briefly, genomic DNA was isolated from primary or CMA expanded enriched CD34^+ cells using the Blood and Cell Culture DNA kit (Qiagen, Valencia Calif.). Genomic DNA was bisulfite treated by an EZ Methylation Kit (Zymo Research, Irvine, Calif.), and biotinylated gene specific primers or long interspersed nucleotide element 1 (LINE-1) primers were used to amplify regions of interest for analysis as described (Bhatia et al., 1997, J Exp Med. 186: 619-624).
Global methylation of genomic DNA was quantified by assaying long interspersed nucleotide element 1 (LINE 1) methylation as a surrogate marker (Yang et al., 2004, Nucleic Acids Res. 32: e38). The degree of global methylation of CD34^+ cells prior to and following ex vivo culture in the presence or absence of CMAs (5azaD/TSA and VPA) was determined in these experiments. […] CD34^+ cells cultured in 5azaD/TSA and VPA had 55.4%±2.2% and 77.2%±2.0% methylation respectively at day 3 (FIG. 6A).

NOD/SCID mice [2] = experiment: In vivo bone marrow homing assay; parameters: species or system mouse; settings: expanded CB cells homing to bone marrow; FIG. 2F
Experimental: In order to assess whether the lower SRC frequency, or lower hematopoietic chimerism, detected following transplantation of VPA expanded cells was due to a defect in the homing of transplanted cells to the host bone marrow, an in vivo homing assay was performed in NOD/SCID mice.

LTB4 = LTB4 in conditioned media by AChE competitive ELISA; type: cell-based, human; settings: day 9 of expansion culture; FIG. 4E
Experimental: The concentration of LTB4 in conditioned media was measured by an acetylcholine esterase competitive enzyme immunoassay following the manufacturer's instructions (Cayman Chemical Co. Ann Arbor, Mich.). Absorbance at 405 nm was read using ELx 800, instrument (Bio Tek Instruments Inc.). Results were calculated using mean values of triplicate wells with standard errors (SE).

[3] = tested on: colony-forming cells (CFC); experiment: Colony-forming cell (CFC) assay of CMA expanded CB cells; type: cell-based, human; settings: for CFC PE (%) (Colony Forming Cell Plating Efficiency): mean ± SEM of three independent experiments
Experimental: Colony-forming cell (CFC) were assayed by plating 5×10^2 cells per dish in semisolid media and were counted after 14 days as described (Araki et al., 2009, Id.). The number of cobble stone area-forming cell (CAFC) was quantitated in primary and expanded CD34+ cells by plating in limiting dilution onto irradiated M2-10B4 stromal cells as described (Araki et al., 2009, Id.; Conneally et al., 1997, Proc. Natl. Acad. Sci. USA. 94: 9836-9841; Taswell, 1981, J. Immunol. 126: 1614-1619).
In order to determine the a correlation between expansion of CD34^+CD90^+ cells and their functional potential as pluripotent hematopoietic stem cells, in vitro functional assays were performed, including assessment of colony-forming cells (CFC), a short-term assay, and cobblestone-area forming cells (CAFC), a long-term assay.

NOD/SCID mice [4] = experiment: NOD/SCID transplantation assay: in vivo hematopoietic reconstitution by expanded CB cells; parameters: species or system mouse
Experimental: Immunodeficient nonobese diabetic/ltsz-scid/scid (NOD/SCID) mice were purchased from Jackson Laboratories (Bar Harbor, Me.) and transplantation assays were performed as described (Araki et al., 2009, Id.; Araki et al., 2007, Id.; Taswell, 1981, Id.). Equal number of primary CD34^+ cells or the progeny of an equal initial number of CD34^+ cells following culture were injected per mouse intravenously. Mice were sacrificed 8 weeks after transplantation, and bone marrow (BM) cells from each mouse were analyzed by flow cytometry to detect multilineage human cell engraftment.
Furthermore, hematopoietic stem cell potency of CMA-treated cord blood cells was evaluated in vivo by assaying hematopoietic repopulation potential of CD34^+ cells expanded with various CMAs. In these experiments, non-obese diabetic/severely combined immunodeficient (NOD/SCID) mice were transplanted with primary CD34^+ cells or the equivalent starting number of CD34^+ cells expanded in culture media supplemented by cytokines alone or in combination with 5azaD/TSA, VPA or 5azaD/VPA. […] Cells from cultures expanded with cytokines and VPA were capable of human hematopoietic engraftment in 2 out of 7 mice with a barely detectable level of chimerism (0.11%, 0.14%) (FIG. 2C).

Compound: CCCC(CCC)C(=O)O [VPA, valproic acid]
- Secondary mouse BM chimerism (% human) (NOD/SCID mice [1]; 10-30 × 10^6 unseparated BM cells from primary mouse, sacrificed 7 weeks later, individual mice): Not Detectable
- Primary mouse BM chimerism (% human) (NOD/SCID mice [1]; progeny of 1 × 10^4 primary CB cells treated ex vivo for 9 days, individual mice): 0.60 % human and 1.0 % human (2×) and 0.30 % human and 5.6 % human
- secondary hosts engrafted (NOD/SCID mice [1]; serial transplantation from primary recipients): none of the 5
- mean LINE 1 methylation (four CpG sites) (LINE-1): 77.2%
- homing efficiency (NOD/SCID mice [2]): 1.68%
- level of leukotriene B4 (LTB4) in conditioned medium (LTB4): increased compared to control
- fold expansion of primitive CFU-mix colonies ([3]; cytokines plus CMA, FIG. 2A): 13.3±4.7 fold
- CFC PE (%) (Colony Forming Cell Plating Efficiency) [3]: 15.27%
- CFC PE (%) (Colony Forming Cell Plating Efficiency) ([3]; listed as VPA Alone): 15.27 ± 3.66 %
- regenerative capacity (in vivo hematopoietic reconstitution function) of expanded CD34+ cells (NOD/SCID mice [4]; Day 9 expanded CD34+ cells): possessing regenerative potential
- multilineage differentiation of expanded cells following transplantation (NOD/SCID mice [4]; FIG. 2D): retained the ability to differentiate into both myeloid and lymphoid lineages
- mice with human hematopoietic engraftment of mice transplanted (NOD/SCID mice [4]; cells expanded with cytokines plus CMA, i.v., analysed 8 weeks after transplantation, FIG. 2C): 2 out of 7
- human hematopoietic chimerism (human CD45+ cells in mouse bone marrow) (NOD/SCID mice [4]; engrafted recipient mice, FIG. 2C): 0.11% and 0.14%

Reference: patent US20130136722A1, “Methods of Ex Vivo Expansion of Blood Progenitor Cells, and Generation of Composite Grafts” (The Board of Trustees of The University of Illinois, priority 2011, published 2013)
